Paper PMC10113271, “Rational peptide design for inhibition of the KIX–MLL interaction” (Scientific Reports, 2023)
Like-named read-outs stand apart in the source and are kept apart here. Where a SMILES comes first, the peptide text is derived from it. Where no end group is shown, it is not given here.

Experiments:
KIX = biological target: T1, KIX (Mus musculus, UniProt P45481); assay: KIX binding by isothermal titration calorimetry (ITC); conditions: 30 °C; for N (stoichiometry of binding): pH 7.0, mean ± standard error of triplicate or more; for − TΔS: entropy term upon KIX binding, pH 7.0, ΔS=(ΔH-ΔG)/T, mean ± standard error of triplicate or more
T1 construct: The DNA fragment of KIX (residues 586–672 of mouse CBP); 6xHis-tag with thrombin cleavage site (N); made in house; host or cells: E. coli BL21(DE3)pLysS
Procedure: For the expression of MLL TAD, E. coli BL21(DE3) competent cells were transformed with the plasmid and cultivated at 37 °C in 2 × YT liquid medium supplemented with ampicillin. When an optical density at 600 nm (OD600) of the cell culture reached 0.7–0.8, 1 mM isopropyl β-D-1-thiogalactopyranoside was added to induce protein expression. After 4 h of cultivation, the cells were harvested by centrifugation. The E. coli cell pellet was suspended with buffer HP (50 mM sodium phosphate [pH 7.4], 300 mM NaCl, 10 mM imidazole, and 6 M guanidine hydrochloride). The sonicated lysate was centrifuged at 4 °C, and the supernatant was filtered using a membrane filter and applied to a gravity column (50 mL) containing 5 mL of nickel-nitrilotriacetic acid (Ni–NTA) resin (Qiagen, Hilden, Germany). The column was washed with buffer HP and buffer AP (50 mM sodium phosphate [pH 7.4], 300 mM NaCl, and 10 mM imidazole) to remove impurities. To elute His-tag–GB1–MLL TAD for ITC and SPR measurements, 40 mL of buffer EP (50 mM sodium phosphate [pH 7.4], 300 mM NaCl, and 250 mM imidazole) was added to the column. […] Thus, His-tag–GB1–MLL TAD was used in the ITC measurements, with the exception of the four mutants (I2849L, D2851L, K2855R, and T2857I). To obtain the MLL TAD peptide without His-tag–GB1 for CD measurements, we washed the column, to which the His-tag–GB1–MLL TAD was attached, with buffer TP (50 mM sodium phosphate [pH 7.4] and 300 mM NaCl), added 150 units of thrombin to the column for digestion of the His-tag–GB1, and eluted the MLL TAD peptide with buffer TP. After Ni–NTA column purification, anion exchange chromatography was performed to further purify the aforementioned four mutants without His-tag–GB1 using the AKTAprime plus chromatography system (Cytiva, Marlborough, MA, USA; 10 mM sodium phosphate [pH 6.0] and 0–1 M NaCl). Due to the fact that the CD spectra of the four mutants were unchanged before and after the anion exchange chromatography, we omitted this procedure for other mutants.
Expression and purification of the KIX protein was performed in the same way as MLL, except that E. coli BL21(DE3)pLysS competent cells and 2 × YT liquid medium with ampicillin and chloramphenicol were used. After Ni–NTA column purification, gel filtration chromatography was performed using a Superdex 200 pg column (Cytiva) and the ITC buffer (20 mM Tris–acetate [pH 7.0] and 50 mM NaCl).
ITC measurements were performed using MicroCal iTC200 (Malvern Panalytical Ltd., Malvern, United Kingdom) at 30 °C. Samples were sufficiently dialyzed with the ITC buffer before measurements. The 600 μM MLL solution was titrated into the cell containing 45 µM KIX. The data were analyzed using the Origin 7 software (OriginLab Corp., Northampton, MA, USA; https://www.originlab.com) to obtain the Kd (M), ΔH (kcal/mol), and stoichiometry of binding, N. The ΔG (kcal/mol) and ΔS (kcal/mol/K) were obtained as follows:2 ΔG=-RTln1/Kd 3 ΔS=ΔH-ΔG/T where R is the gas constant, and T is the temperature.

KIX–MLL interaction = conditions: cited from earlier work
Procedure: Previous studies have reported several inhibitors that bind the MLL site of KIX, including isoxazolidine derivatives, which are small molecule compounds that mimic the function of the TADs of transcriptional activators, and natural products such as sekikaic acid and lobaric acid[21],[22]. […] However, the EC50 and IC50 values of these small molecule inhibitors are 10- to 100-fold larger than the Kd for the KIX–MLL interaction (2.02 ± 0.04 μM).

[1] = inhibition of the KIX–MLL interaction

T1 sequence (P45481 586-672): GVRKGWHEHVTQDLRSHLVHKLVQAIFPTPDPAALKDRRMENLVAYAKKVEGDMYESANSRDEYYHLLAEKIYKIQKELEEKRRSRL

Which results are given for `CC[C@H](C)[C@H](NC(=O)[C@H](CC(=O)O)NC(=O)[C@H](CO)NC(=O)[C@@H]1CCCN1C(=O)[C@H](CC(C)C)NC(=O)[C@@H](NC(=O)[C@H](CC(N)=O)NC(=O)CN)[C@@H](C)CC)C(=O)N[C@@H](CCSC)C(=O)N[C@@H](CC(C)C)C(=O)N[C@@H](Cc1ccccc1)C(=O)N[C@H](C(=O)N[C@@H](CC(C)C)C(=O)N[C@@H](CCCCN)C(=O)N[C@@H](CC(N)=O)C(=O)N[C@H](C(=O)N1CCC[C@H]1C(=O)N[C@@H](CO)C(=O)N[C@@H](CCSC)C(=O)N[C@@H](CCC(N)=O)C(=O)N[C@@H](C)C(=O)N[C@@H](CC(C)C)C(=O)NCC(=O)N[C@@H](CCC(=O)O)C(=O)N[C@@H](CO)C(=O)N1CCC[C@H]1C(=O)N[C@@H](CCC(=O)O)C(=O)N[C@@H](CO)C(=O)N[C@@H](Cc1ccc(O)cc1)C(=O)O)[C@@H](C)O)C(C)C` [D2851L] (H-GNILPSDIMLFVLKNTPSMQALGESPESY-OH; N-terminus and C-terminus assumed)?
N (stoichiometry of binding) (KIX): 1.020 ± 0.006; − TΔS (KIX): 5.86 ± 1.7 kJ/mol

What does the source list for `CC[C@H](C)[C@H](NC(=O)[C@H](CC(N)=O)NC(=O)CN)C(=O)N[C@@H](CC(C)C)C(=O)N1CCC[C@H]1C(=O)N[C@@H](CO)C(=O)N[C@@H](CC(=O)O)C(=O)N[C@@H](CC(C)C)C(=O)N[C@@H](CCSC)C(=O)N[C@@H](CC(=O)O)C(=O)N[C@@H](Cc1ccccc1)C(=O)N[C@H](C(=O)N[C@@H](CC(C)C)C(=O)N[C@@H](CCCCN)C(=O)N[C@@H](CC(N)=O)C(=O)N[C@H](C(=O)N1CCC[C@H]1C(=O)N[C@@H](CO)C(=O)N[C@@H](CCSC)C(=O)N[C@@H](CCC(N)=O)C(=O)N[C@@H](C)C(=O)N[C@@H](CC(C)C)C(=O)NCC(=O)N[C@@H](CCC(=O)O)C(=O)N[C@@H](CO)C(=O)N1CCC[C@H]1C(=O)N[C@@H](CCC(=O)O)C(=O)N[C@@H](CO)C(=O)N[C@@H](Cc1ccc(O)cc1)C(=O)O)[C@@H](C)O)C(C)C` [I2849L] (H-GNILPSDLMDFVLKNTPSMQALGESPESY-OH; N-terminus and C-terminus assumed)?
N (stoichiometry of binding) (KIX): 0.947 ± 0.008; − TΔS (KIX): 19.2 ± 0.84 kJ/mol

What does the source list for `CC[C@H](C)[C@H](NC(=O)[C@H](CC(=O)O)NC(=O)[C@H](CO)NC(=O)[C@@H]1CCCN1C(=O)[C@H](CC(C)C)NC(=O)[C@@H](NC(=O)[C@H](CC(N)=O)NC(=O)CN)[C@@H](C)CC)C(=O)N[C@@H](CCSC)C(=O)N[C@@H](CC(=O)O)C(=O)N[C@@H](Cc1ccccc1)C(=O)N[C@H](C(=O)N[C@@H](CC(C)C)C(=O)N[C@@H](CCCNC(=N)N)C(=O)N[C@@H](CC(N)=O)C(=O)N[C@H](C(=O)N1CCC[C@H]1C(=O)N[C@@H](CO)C(=O)N[C@@H](CCSC)C(=O)N[C@@H](CCC(N)=O)C(=O)N[C@@H](C)C(=O)N[C@@H](CC(C)C)C(=O)NCC(=O)N[C@@H](CCC(=O)O)C(=O)N[C@@H](CO)C(=O)N1CCC[C@H]1C(=O)N[C@@H](CCC(=O)O)C(=O)N[C@@H](CO)C(=O)N[C@@H](Cc1ccc(O)cc1)C(=O)O)[C@@H](C)O)C(C)C` [K2855R] (H-GNILPSDIMDFVLRNTPSMQALGESPESY-OH; N-terminus and C-terminus assumed)?
N (stoichiometry of binding) (KIX): 0.94 ± 0.02; − TΔS (KIX): 23.8 ± 1.7 kJ/mol

Which IC50 (KIX–MLL interaction; small molecule inhibitor of the KIX–MLL interaction) does the source give for `O=C(Nc1ccc(Cl)cc1)c1cc2ccccc2cc1OP(=O)(O)O` [KG-501] here?
Its IC50 is 200 ± 10 µM.

For `CC[C@H](C)[C@H](NC(=O)[C@H](CC(=O)O)NC(=O)[C@H](CO)NC(=O)[C@@H]1CCCN1C(=O)[C@H](CC(C)C)NC(=O)[C@@H](NC(=O)[C@H](CC(N)=O)NC(=O)CN)[C@@H](C)CC)C(=O)N[C@@H](CCSC)C(=O)N[C@@H](CC(=O)O)C(=O)N[C@@H](Cc1ccccc1)C(=O)N[C@H](C(=O)N[C@@H](CC(C)C)C(=O)N[C@@H](CCCCN)C(=O)N[C@@H](CC(N)=O)C(=O)N[C@H](C(=O)N1CCC[C@H]1C(=O)N[C@@H](CO)C(=O)N[C@@H](CCSC)C(=O)N[C@@H](CCC(N)=O)C(=O)N[C@@H](C)C(=O)N[C@@H](CC(C)C)C(=O)NCC(=O)N[C@@H](CCC(=O)O)C(=O)N[C@@H](CO)C(=O)N1CCC[C@H]1C(=O)N[C@@H](CCC(=O)O)C(=O)N[C@@H](CO)C(=O)N[C@@H](Cc1ccc(O)cc1)C(=O)O)[C@@H](C)CC)C(C)C` [T2857I] (H-GNILPSDIMDFVLKNIPSMQALGESPESY-OH; N-terminus and C-terminus assumed), which “N (stoichiometry of binding)” value (KIX) is on record?
The value was 1.043 ± 0.003.

What about the “− TΔS” value (KIX) of the same compound?
Its value is 9.25 ± 0.33 kJ/mol.

Which IC50 (KIX–MLL interaction; [1]) does the source give for `CCCCCc1c2c(cc(O)c1C(=O)O)OC(=O)c1c(cc(OC)cc1C(=O)CCCC)O2` [lobaric acid] here?
The IC50 was 17 µM.

With `CCCc1cc(OC)cc(O)c1C(=O)Oc1c(OC)cc(CCC)c(C(=O)O)c1O` [sekikaic acid] as the compound, how does the IC50 (KIX–MLL interaction; [1]) read?
The IC50 was 34 µM.

With “K2855R / T2857L: K2855R/T2857L double mutant of the MLL TAD peptide ({His6-GB1}-GNILPSDIMDFVLRNLPSMQALGESPESY)” as the compound, how does the “− TΔS” value (KIX) read?
Its value is 6.28 ± 0.84 kJ/mol.

For “K2855R / T2857W: K2855R/T2857W double mutant of the MLL TAD peptide ({His6-GB1}-GNILPSDIMDFVLRNWPSMQALGESPESY)”, which “− TΔS” value (KIX) is on record?
The value was 16.2 ± 0.21 kJ/mol.

Which “− TΔS” value (KIX) does the source give for “T2857A: T2857A mutant of the MLL TAD peptide (GNILPSDIMDFVLKNAPSMQALGESPESY; left off: His6, N-terminal, cleaved | GB1 (B1 domain of Streptococcal protein G), N-terminal, cleaved)” here?
The value was 16.7 ± 0.84 kJ/mol.

For “T2857F: T2857F mutant of the MLL TAD peptide (GNILPSDIMDFVLKNFPSMQALGESPESY; left off: His6, N-terminal, cleaved | GB1 (B1 domain of Streptococcal protein G), N-terminal, cleaved)”, which “− TΔS” value (KIX) is on record?
The value was 13.4 ± 1.3 kJ/mol.

For “T2857K: T2857K mutant of the MLL TAD peptide ({His6-GB1}-GNILPSDIMDFVLKNKPSMQALGESPESY)”, which “− TΔS” value (KIX) is on record?
Its value is 18.4 ± 0.84 kJ/mol.

Which “− TΔS” value (KIX) does the source give for “T2857L: T2857L mutant of the MLL TAD peptide ({His6-GB1}-GNILPSDIMDFVLKNLPSMQALGESPESY)” here?
Its value is 10.9 ± 0.42 kJ/mol.

For “T2857R: T2857R mutant of the MLL TAD peptide ({His6-GB1}-GNILPSDIMDFVLKNRPSMQALGESPESY)”, which “− TΔS” value (KIX) is on record?
The value was 20.5 ± 1.3 kJ/mol.

Which “− TΔS” value (KIX) does the source give for “T2857W: T2857W mutant of the MLL TAD peptide, highest KIX affinity ({His6-GB1}-GNILPSDIMDFVLKNWPSMQALGESPESY)” here?
Its value is 18.4 ± 0.42 kJ/mol.

Which “− TΔS” value (KIX) does the source give for “T2857Y: T2857Y mutant of the MLL TAD peptide ({His6-GB1}-GNILPSDIMDFVLKNYPSMQALGESPESY)” here?
The value was 18.8 ± 0.84 kJ/mol.
